Patent US8178506B2, “Oligomeric compounds and compositions for use in modulation of small non-coding RNAs” (Regulus Therapeutics Inc., priority 2003, dated 2012)
In the oligonucleotide strings, read from the 5' end, every base follows the letter of its sugar. An asterisk marks phosphorothioate; unmarked linkages are phosphodiester. Other units and linkages are bracketed, terminal groups are in braces. A string of capitals states the bases alone. e = 2'-O-(2-methoxyethyl) (MOE); [5mC] = 5-methylcytosine; d = 2'-deoxy (DNA)

Assays:
DIO mice = assay: Diet-induced obesity (DIO) mice; assay type: in vivo; details: 25 mg/kg s.c. twice weekly
BJ cells = assay: Cell cycle assay in BJ cells; assay type: cell-based, human; details: 200 nM, 48 hours, relative to untreated control
Protocol: BJ cells were routinely cultured in MEM high glucose with 2 mM L-glutamine and Earle's BSS adjusted to contain 1.5 g/L sodium bicarbonate and supplemented with 10% fetal bovine serum, 0.1 mM non-essential amino acids and 1.0 mM sodium pyruvate (all media and supplements from Invitrogen Life Technologies, Carlsbad, Calif.). B16-F10 cells were routinely cultured in DMEM high glucose (Invitrogen Life Technologies, Carlsbad, Calif.) supplemented with 10% fetal bovine serum (Invitrogen Life Technologies, Carlsbad, Calif.). T47D cells were cultured in DMEM High glucose media (Invitrogen Life Technologies, Carlsbad, Calif.) supplemented with 10% fetal bovine serum. […] Cells were plated on collagen-coated 24-well plates (Falcon-Primaria #3047, BD Biosciences, Bedford, Mass.) at approximately 50,000 cells per well and allowed to attach to wells overnight.
In further studies, additional cell lines were treated with oligomeric compounds targeted against miRNAs to assess the effects of each oligomeric compound on cell cycling. BJ, B16, T47D, and HeLa cells were cultured and transfected as described above. […] T47Dp53 cells are T47D cells that have been transfected with and selected for maintenance of a plasmid that expresses a wildtype copy of the p53 gene (for example, pCMV-p53; Clontech, Palo Alto, Calif.), using standard laboratory procedures. BJ cells were treated with 200 nM of each oligomeric compound, and T47D, T47Dp53, HeLa, and B16 cells were treated with 150 nM of each oligomeric compound. The human foreskin fibroblast BJ cell line represents a non-cancer cell line, while HeLa, T47D, T47Dp53 cells and the mouse melanoma cell line B16-F10 represent cancerous cell lines. For comparison, oligomeric compounds ISIS 183891 (SEQ ID NO: 847) and ISIS 285717 ([…]; herein incorporated as SEQ ID NO: 857), both targeting the kinesin-like 1/Eg5 mRNA, involved in cell cycling, were used as positive controls. The random-mer ISIS 29848 was used as a negative control. Additionally, the oligomeric compounds ISIS Number 25690 ([…]; herein incorporated as SEQ ID NO: 858) and ISIS Number 25691 ([…]; herein incorporated as SEQ ID NO: 859), targeted to nucleotides 3051-3070 and 3085-3104, respectively, of the mRNA encoding the Drosha RNase III (GenBank Accession NM_013235.2, incorporated herein as SEQ ID NO: 860) were also tested. ISIS Number 25690 and ISIS Number 25691 are 5-10-52′-MOE gapmer compounds, 20 nucleotides in length, with phosphorothioate internucleoside linkages throughout the oligomeric compound. All cytidine residues are 5-methylcytidines. Transfections were performed using the methods described herein. Cells were prepared for flow cytometry 48-hours after oligonucleotide treatment. Results of these studies are shown in Table 35, where data are expressed as percentage of cells in each phase relative to the untreated control cells in that phase.

Substance | liver toxicity (plasma transaminase levels, weekly) (DIO mice) | % cells in cell cycle phase G1 (BJ cells) [%] | % cells in cell cycle phase G2/M (BJ cells) [%] | % cells in cell cycle phase S (BJ cells) [%] | % cells in cell cycle phase aneuploid (BJ cells) [%] | % cells in cell cycle phase subG1 (BJ cells) [%]
CTAGTGGTCCTAAACATTTCAC (chemistry not given here) [ISIS 327878, uniform 2′-MOE PS; targets mir-203] | did not appear to cause liver toxicity | – | – | – | – | –
328403 (antisense eA*eG*eG*e[5mC]*e[5mC]*dT*dA*dT*dT*d[5mC]*d[5mC]*dT*dG*dT*dA*eG*e[5mC]*eA*eA*eA) [compound 328403] | – | 102 | 92 | 95 | 114 | 81
